Assay results taken from patent US6849648B2, “Phenylene alkyne matrix metalloproteinase inhibitors” (Warner-Lambert Company, priority 2001, dated 2005).
Read-outs that look alike come from different tables or passages of the source.

How the values were obtained:
[1] = target: MMP-13CD (catalytic domain of collagenase 3) (Homo sapiens, UniProt P45452); assay: Thiopeptolide hydrolysis assay, catalytic domain of collagenase 3; assay type: biochemical
Description: (§1) The assays measure the amount by which a test compound reduces the hydrolysis of a thiopeptolide substrate caused by a matrix metalloproteinase enzyme. Such assays are described in detail by Ye et al., in Biochemistry, 1992;31(45):11231-11235, which is incorporated herein by reference.
(§2) Thiopeptolide substrates show virtually no decomposition or hydrolysis in the absence of a matrix metalloproteinase enzyme. A typical thiopeptolide substrate commonly utilized for assays is Ac-Pro-Leu-Gly-thioester-Leu-Leu-Gly-OEt. A 100 μL assay mixture will contain 50 mM of 2-morpholinoethane sulfonic acid monohydrate (MES, pH 6.0) 10 mM CaCl2, 100 μM thiopeptolide substrate, and 1 mM 5,5′-dithio-bis-(2-nitro-benzoic acid) (DTNB). The thiopeptolide substrate concentration is varied from 10 to 800 μM to obtain Km and Kcat values. The change in absorbance at 405 nm is monitored on a Thermo Max microplate reader (molecular Devices, Menlo Park, Calif.) at room temperature (22° C.). The calculation of the amount of hydrolysis of the thiopeptolide substrate is based on E412=13600 m^−1 cm^−1 for the DTNB-derived product 3-carboxy-4-nitrothiophenoxide. Assays are carried out with and without matrix metalloproteinase inhibitor compounds, and the amount of hydrolysis is compared for a determination of inhibitory activity of the test compounds.
(§3) Several representative compounds have been evaluated for their ability to inhibit various matrix metalloproteinase enzymes. Table 1 below presents inhibitory activity as IC50's in micromolar for representative invention compounds. In the table, MMP-1FL refers to full length interstitial collagenase; MMP-2FL refers to full length Gelatinase A; MMP-3CD refers to the catalytic domain of stromelysin; MMP-7FL refers to full length matrilysin; MMP-9FL refers to full length Gelatinase B; MMP-13CD refers to the catalytic domain of collagenase 3; and MMP-14CD refers to the catalytic domain of MMP-14. Test compounds were evaluated at various concentrations in order to determine their respective IC50 values, the micromolar concentration of compound required to cause a 50% inhibition of the hydrolytic activity of the respective enzyme.

[2] = target: MMP-3CD (catalytic domain of stromelysin) (Homo sapiens, UniProt P08254); assay: Thiopeptolide hydrolysis assay, catalytic domain of stromelysin; assay type: biochemical; settings: Table 3; MMP03 catalytic domain
Description: as §1, §2, §3

[3] = target: T1, MMP-2FL (full length Gelatinase A) (Homo sapiens, UniProt P08253); assay: Thiopeptolide hydrolysis assay, full length Gelatinase A; assay type: biochemical; settings: Table 3; full-length MMP02
T1 sequence (P08253 110-660): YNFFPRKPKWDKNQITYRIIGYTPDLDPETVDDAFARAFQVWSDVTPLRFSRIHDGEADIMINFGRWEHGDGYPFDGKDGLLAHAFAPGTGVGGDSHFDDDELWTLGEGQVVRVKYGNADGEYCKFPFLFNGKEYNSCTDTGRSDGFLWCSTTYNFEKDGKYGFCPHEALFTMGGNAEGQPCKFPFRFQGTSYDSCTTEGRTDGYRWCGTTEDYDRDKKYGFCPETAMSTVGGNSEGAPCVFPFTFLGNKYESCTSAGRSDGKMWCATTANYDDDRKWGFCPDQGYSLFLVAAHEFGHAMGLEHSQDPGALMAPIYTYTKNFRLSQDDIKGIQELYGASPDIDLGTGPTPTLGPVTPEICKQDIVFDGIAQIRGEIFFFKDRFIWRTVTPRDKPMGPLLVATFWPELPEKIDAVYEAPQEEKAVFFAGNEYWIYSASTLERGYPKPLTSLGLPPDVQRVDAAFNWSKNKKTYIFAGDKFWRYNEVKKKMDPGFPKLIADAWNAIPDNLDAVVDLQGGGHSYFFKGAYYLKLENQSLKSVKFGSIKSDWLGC
Description: as §1, §2, §3

[4] = target: MMP-14CD (catalytic domain of MMP-14) (Homo sapiens, UniProt P50281); assay: Thiopeptolide hydrolysis assay, catalytic domain of MMP-14; assay type: biochemical; settings: Table 3; MMP-14 catalytic domain; read-out: IC50 (μM) MMP14 (CD)
Description: as §1, §2, §3

[5] = target: T2, MMP-7FL (full length matrilysin) (Homo sapiens, UniProt P09237); assay: Thiopeptolide hydrolysis assay, full length matrilysin; assay type: biochemical; settings: Table 3; full-length MMP07
T2 sequence (P09237 95-267): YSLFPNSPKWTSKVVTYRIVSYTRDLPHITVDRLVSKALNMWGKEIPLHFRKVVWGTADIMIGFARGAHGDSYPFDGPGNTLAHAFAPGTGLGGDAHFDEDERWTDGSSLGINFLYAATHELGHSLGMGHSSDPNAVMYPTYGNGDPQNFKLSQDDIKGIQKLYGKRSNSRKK
Description: as §1, §2, §3

[6] = target: T3, MMP-1FL (full length interstitial collagenase) (Homo sapiens, UniProt P03956); assay: Thiopeptolide hydrolysis assay, full length interstitial collagenase; assay type: biochemical; settings: Table 3; full-length MMP01
T3 sequence (P03956 100-469): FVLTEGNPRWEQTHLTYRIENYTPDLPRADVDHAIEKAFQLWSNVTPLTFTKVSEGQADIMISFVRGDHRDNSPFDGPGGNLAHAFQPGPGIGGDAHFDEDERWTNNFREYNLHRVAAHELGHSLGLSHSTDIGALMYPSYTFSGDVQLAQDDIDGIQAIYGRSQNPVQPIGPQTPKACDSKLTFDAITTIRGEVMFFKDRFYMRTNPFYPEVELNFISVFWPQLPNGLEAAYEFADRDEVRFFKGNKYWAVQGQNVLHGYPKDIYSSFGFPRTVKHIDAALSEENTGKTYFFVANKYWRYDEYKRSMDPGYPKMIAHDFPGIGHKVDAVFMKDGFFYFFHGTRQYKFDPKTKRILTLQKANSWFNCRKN
Description: as §1, §2, §3

[7] = target: MMP-9FL (full length Gelatinase B) (Homo sapiens, UniProt P14780); assay: Thiopeptolide hydrolysis assay, full length Gelatinase B; assay type: biochemical; settings: Table 3; full-length MMP09
Description: as §1, §2, §3

[8] = Table 2, thiopeptolide substrate, read-out: MMP-13CD (IC50)
[9] = Table 3, MMP-13 catalytic domain, read-out: IC50 (μM) MMP13 (CD)
[10] = Table 1, thiopeptolide substrate, read-out: IC50 (μM) Versus MMPs, MMP13 (CD)

Chain of MMP-3CD (catalytic domain of stromelysin) (P08254 100-272 limits assumed): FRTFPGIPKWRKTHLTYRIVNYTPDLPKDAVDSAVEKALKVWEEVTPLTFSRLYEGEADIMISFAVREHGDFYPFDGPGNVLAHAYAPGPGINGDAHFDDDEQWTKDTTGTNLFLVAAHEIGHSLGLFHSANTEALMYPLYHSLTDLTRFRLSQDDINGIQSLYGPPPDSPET
Chain of MMP-9FL (full length Gelatinase B) (P14780 94-707, species assumed): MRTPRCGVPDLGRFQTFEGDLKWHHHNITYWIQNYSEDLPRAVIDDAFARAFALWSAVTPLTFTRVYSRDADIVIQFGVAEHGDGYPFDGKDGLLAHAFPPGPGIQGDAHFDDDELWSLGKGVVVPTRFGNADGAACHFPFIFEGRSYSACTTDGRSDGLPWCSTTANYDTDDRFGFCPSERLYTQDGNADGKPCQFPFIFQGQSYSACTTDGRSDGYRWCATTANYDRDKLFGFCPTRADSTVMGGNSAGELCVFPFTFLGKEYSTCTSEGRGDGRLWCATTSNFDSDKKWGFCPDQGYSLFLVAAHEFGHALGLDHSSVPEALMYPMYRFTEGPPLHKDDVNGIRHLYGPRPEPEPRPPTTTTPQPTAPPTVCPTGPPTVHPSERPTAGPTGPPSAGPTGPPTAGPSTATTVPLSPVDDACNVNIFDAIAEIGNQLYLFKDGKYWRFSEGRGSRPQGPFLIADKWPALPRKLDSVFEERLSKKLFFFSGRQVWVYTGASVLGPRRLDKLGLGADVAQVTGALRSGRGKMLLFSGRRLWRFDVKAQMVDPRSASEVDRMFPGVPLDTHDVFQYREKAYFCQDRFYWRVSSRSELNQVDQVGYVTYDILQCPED

Row | IC50 [1, 8] [µM] | IC50 [2] [µM] | IC50 [1, 9] [µM] | IC50 [3] [µM] | IC50 [4] [µM] | IC50 [5] [µM] | IC50 [6] [µM] | IC50 [7] [µM] | IC50 [1, 10] [µM] | melting point [°C] | Structure (SMILES)
1 | 100 |  |  |  |  |  |  |  |  |  | N#Cc1ccc(CNC(=O)c2cccc(C#CCn3ccnn3)c2)cc1 [Example 4, N-(4-Cyano-benzyl)-3-(3-[1,2,3]-triazol-1-yl-prop-1-ynyl)-benzamide]
2 |  | > 10 | 0.0104 | > 30 | > 30 | 24 | > 30 | > 100 |  |  | CN1c2ccc(C#CCc3ccccc3)cc2C(=O)N(Cc2ccc(C(=O)O)cc2)[S+]1[O-] (stereo not shown) [Example 15, 4-[1-Methyl-2,4-dioxo-6-(3-phenyl-prop-1-ynyl)-1,4-dihydro-2H-2λ^4-benzo[1,2,6]thiadiazin-3-ylmethyl]benzoic acid]
3 | 0.029 |  |  |  |  |  |  |  |  |  | O=C(O)c1ccc(CNC(=O)c2cccc(C#CCc3ccccc3)c2)cc1 [Example 6]
4 |  | 5.6 | 0.00517 | > 100 | > 30 | 16 | > 30 | > 100 |  |  | O=C(O)c1ccc(CN2C(=O)Nc3ccc(C#CCc4ccccc4)cc3S2(=O)=O)cc1 [Example 17, 4-[1,1,3-Trioxo-7-(3-phenyl-prop-1-ynyl)-3,4-dihydro-1H-1λ^6-benzo[1,2,4]thiadiazin-2-ylmethyl]-benzoic acid]
5 |  | 12 | 0.0315 | > 30 | > 30 | > 30 | > 30 | > 30 |  |  | CN1c2ccc(C#CCc3ccccc3)cc2C(=O)N(Cc2ccc(C(=O)O)cc2)S1(=O)=O [Example 16, 4-[1-methyl-2,2,4-trioxo-6-(3-phenylprop-1-ynyl)-1,4-dihydro-2H-2λ^6-benzo[1,2,6]-thiadiazin-3-ylmethyl]benzoic acid]
6 | 66 |  |  |  |  |  |  |  |  |  | N#Cc1ccc(CNC(=O)c2cccc(C#CCn3cncn3)c2)cc1 [Example 5, N-(4-Cyano-benzyl)-3-(3-[1,2,4]-triazol-1-yl-prop-1-ynyl)-benzamide]

Further lines, the compound ahead of its results:

Row | Structure (SMILES) | IC50 [1, 8] [µM] | IC50 [2] [µM] | IC50 [1, 9] [µM] | IC50 [3] [µM] | IC50 [4] [µM] | IC50 [5] [µM] | IC50 [6] [µM] | IC50 [7] [µM] | IC50 [1, 10] [µM] | melting point [°C]
7 | CN1C(=O)N(Cc2ccc(C(=O)O)cc2)S(=O)(=O)c2cc(C#CCc3ccccc3)ccc21 [Example 2, 4-[4-Methyl-1,1,3-trioxo-7-(3-phenyl-prop-1-ynyl)-3,4-dihydro-1H-1l^6-benzo[1,2,4]thiadiazin-2-ylmethyl]-benzoic acid] |  | > 10 |  | > 30 | > 30 | > 30 | > 30 | > 30 | 0.0042 | 208 to 209
8 | O=C1Nc2ccc(C#CCc3ccccc3)cc2S(=O)(=O)N1Cc1ccccc1 [Example 3, 2-Benzyl-1,1-dioxo-7-(3-phenyl-prop-1-ynyl)-1,4-dihydro-2H-1l^6-benzo[1,2,4]thiadiazin-3-one] |  | > 30 | 0.12 | > 100 | > 30 | > 30 | > 30 | > 30 |  | 
9 | O=C(O)c1ccc(CN2C(=O)Nc3ccc(C#CCCc4ccccc4)cc3S2(=O)=O)cc1 [Example 19, 4-[1,1,3-Trioxo-7-(4-phenyl-but-1-ynyl)-3,4-dihydro-1H-1λ^6-benzo[1,2,4]thiadiazin-2-ylmethyl]-benzoic acid] |  |  | 0.079 |  |  |  |  |  |  | 
10 | COc1ccc(CN2C(=O)Nc3ccc(C#CCc4ccccc4)cc3S2(=O)=O)cc1 [Example 18, 2-(4-Methoxy-benzyl)-1,1-dioxo-7-(3-phenyl-prop-1-ynyl)-1,4-dihydro-2H, 1λ^6-benzo[1,2,4]thiadiazin-3-one] |  | > 30 | 0.185 | > 30 | > 30 | > 10 | > 30 | > 30 |  | 
11 | CN1C(=O)N(Cc2ccccc2)S(=O)(=O)c2cc(C#CCc3ccccc3)ccc21 [Example 1, 2-Benzyl-4-methyl-1,1-dioxo-7-(3-phenyl-prop-1ynyl)-1,4-dihydro-2H-1l^6-benzo[1,2,4]thiadiazin-3-one] |  | > 30 |  | > 30 | > 100 | > 30 | > 100 | > 100 | 2.2 | 125 to 127
